Results: patent publication US5308856A, “Thiazolidine-2,4-dione derivatives, salts and preparation processes thereof” (Kyorin Pharmaceutical Co., Ltd., priority 1991, dated 1994)

How the values were obtained:
[1] = tested on: blood glucose; test: Enhancement of Insulin Sensitivity in Rats; type: in vivo; details: 10 mg/kg/day p.o. once daily 5 days, fasted 18 h, insulin 0.1 unit/kg i.p., n = 5, *P < 0.01, reference (insulin only) 11.0 ± 0.8
Experimental: Enhancement of Insulin Sensitivity in Rats
After rats were orally administered with the compound of Example 1 once daily for 5 days at 10 mg/kg/day, they were fasted for 18 hours and then insulin was intraperitoneally injected at 0.1 unit/kg. Blood samples were collected from the tail vein 0 and 1 hour after the injection of insulin for the determination of blood glucose (Table 1).

[2] = target: T1, aldose reductase extracted from rat lens (Rattus norvegicus, UniProt P07943); test: Inhibition of Aldose Reductase in Vitro; type: biochemical
T1 construct: aldose reductase extracted from rat lens; from tissue; host or cells: rat lens
From the text: Inhibition of Aldose Reductase in Vitro
According to the method of Hyman and Kinoshita (J. Biol. Chem., 240, 877, 1965), inhibitory activity of the compound of Example 23 on aldose reductase extracted from rat lens was investigated. As a result, the following IC50 value was obtained (Table 3).

[3] = tested on: blood glucose; test: Improvement of Glucose Tolerance in Genetically Obese Mice (OGTT); type: in vivo, Genetically obese mice (CS57BL ob/ob mice); details: ob/ob mice, fasted 18 h, glucose 2 g/kg p.o.
Experimental: Improvement of Glucose Tolerance in Genetically Obese Mice
Genetically obese mice (CS57BL ob/ob mice) were orally administered with the compound of Example 1 once daily for 5 days at 10, 30 or 100 mg/kg/day, respectively. They were fasted for 18 hours and then 2 g/kg of glucose was orally administered. Blood samples were collected from the tail vein 0, 30, 60 and 120 minutes after the administration of glucose for the determination of blood glucose (Table 2).

IC50 [2]: 0.09 µM
Compound: O=C1NC(=O)C(c2ccc(N3Cc4ccccc4C3=O)cc2)S1 (centres unmarked) [Example 1, 5-(4-(1-Oxoisoindoline-2-yl)Phenyl)Thiazolidine-2,4-Dione]
0 hour value-1 hour value (blood glucose) [1]: 23.0 ± 1.2 mg % | OGTT (% of control) ([3]; 10 mg/kg/day p.o. once daily 5 days): 98.2 % of control | OGTT (% of control) ([3]; 30 mg/kg/day p.o. once daily 5 days): 84.1 % of control | OGTT (% of control) ([3]; 100 mg/kg/day p.o. once daily 5 days): 81.1 % of control
